Experimental data from PMC11007962, “First-in-human study of GFH018, a small molecule inhibitor of transforming growth factor-β receptor I inhibitor, in patients with advanced solid tumors” (BMC Cancer, 2024).
Like-named read-outs stand apart in the source and are kept apart here.

System: patients with advanced solid tumors
[1] = 85 mg BID 14d-on/14d-off (N = 12)

Cc1cccc(-c2nn3c(c2-c2ccc4ncnn4c2/C=C/C(N)=O)CCC3)n1 [GFH018]
TEAE: ALT increased, any grade (Table S3) (85 mg BID 7d-on/7d-off (N = 6)): 0 n (%)
TEAE: ALT increased, maximal CTCAE grade G1 (85 mg BID 7d-on/7d-off (N = 6)): 0 n (%)
TEAE: ALT increased, maximal CTCAE grade G2 (85 mg BID 7d-on/7d-off (N = 6)): 0 n (%)
TEAE: ALT increased, maximal CTCAE grade G3 (85 mg BID 7d-on/7d-off (N = 6)): 0 n (%)
TEAE: ALT increased, maximal CTCAE grade G4 (85 mg BID 7d-on/7d-off (N = 6)): 0 n (%)
TEAE: ALT increased, maximal CTCAE grade G5 (85 mg BID 7d-on/7d-off (N = 6)): 0 n (%)
TEAE: AST increased (85 mg BID 7d-on/7d-off (N = 6)): 1 (16.7%) n (%)
TEAE: AST increased, any grade (Table S3) (85 mg BID 7d-on/7d-off (N = 6)): 1 (16.7%) n (%)
TEAE: AST increased, maximal CTCAE grade G1 (85 mg BID 7d-on/7d-off (N = 6)): 1 (16.7%) n (%)
TEAE: AST increased, maximal CTCAE grade G2 (85 mg BID 7d-on/7d-off (N = 6)): 0 n (%)
TEAE: AST increased, maximal CTCAE grade G3 (85 mg BID 7d-on/7d-off (N = 6)): 0 n (%)
TEAE: AST increased, maximal CTCAE grade G4 (85 mg BID 7d-on/7d-off (N = 6)): 0 n (%)
TEAE: AST increased, maximal CTCAE grade G5 (85 mg BID 7d-on/7d-off (N = 6)): 0 n (%)
TEAE: Abdominal distention (85 mg BID 7d-on/7d-off (N = 6)): 1 (16.7%) n (%)
TEAE: Abdominal pain (85 mg BID 7d-on/7d-off (N = 6)): 2 (33.3%) n (%)
TEAE: Anemia (85 mg BID 7d-on/7d-off (N = 6)): 2 (33.3%) n (%)
TEAE: Asthenia (85 mg BID 7d-on/7d-off (N = 6)): 1 (16.7%) n (%)
TEAE: Bilirubin conjugated increased (85 mg BID 7d-on/7d-off (N = 6)): 1 (16.7%) n (%)
TEAE: Blood albumin decreased (85 mg BID 7d-on/7d-off (N = 6)): 1 (16.7%) n (%)
TEAE: Blood bilirubin increased (85 mg BID 7d-on/7d-off (N = 6)): 0 n (%)
TEAE: C-reactive protein increased (85 mg BID 7d-on/7d-off (N = 6)): 0 n (%)
TEAE: C-reactive protein increased, any grade (Table S3) (85 mg BID 7d-on/7d-off (N = 6)): 0 n (%)
TEAE: C-reactive protein increased, maximal CTCAE grade G1 (85 mg BID 7d-on/7d-off (N = 6)): 0 n (%)
TEAE: C-reactive protein increased, maximal CTCAE grade G2 (85 mg BID 7d-on/7d-off (N = 6)): 0 n (%)
TEAE: C-reactive protein increased, maximal CTCAE grade G3 (85 mg BID 7d-on/7d-off (N = 6)): 0 n (%)
TEAE: C-reactive protein increased, maximal CTCAE grade G4 (85 mg BID 7d-on/7d-off (N = 6)): 0 n (%)
TEAE: C-reactive protein increased, maximal CTCAE grade G5 (85 mg BID 7d-on/7d-off (N = 6)): 0 n (%)
TEAE: Constipation (85 mg BID 7d-on/7d-off (N = 6)): 0 n (%)
TEAE: Decreased appetite (85 mg BID 7d-on/7d-off (N = 6)): 2 (33.3%) n (%)
TEAE: Decreased appetite, any grade (Table S3) (85 mg BID 7d-on/7d-off (N = 6)): 2 (33.3%) n (%)
TEAE: Decreased appetite, maximal CTCAE grade G1 (85 mg BID 7d-on/7d-off (N = 6)): 1 (16.7%) n (%)
TEAE: Decreased appetite, maximal CTCAE grade G2 (85 mg BID 7d-on/7d-off (N = 6)): 1 (16.7%) n (%)
TEAE: Decreased appetite, maximal CTCAE grade G3 (85 mg BID 7d-on/7d-off (N = 6)): 0 n (%)
TEAE: Decreased appetite, maximal CTCAE grade G4 (85 mg BID 7d-on/7d-off (N = 6)): 0 n (%)
TEAE: Decreased appetite, maximal CTCAE grade G5 (85 mg BID 7d-on/7d-off (N = 6)): 0 n (%)
TEAE: GGT increased (85 mg BID 7d-on/7d-off (N = 6)): 0 n (%)
TEAE: GGT increased, any grade (Table S3) (85 mg BID 7d-on/7d-off (N = 6)): 0 n (%)
TEAE: GGT increased, maximal CTCAE grade G1 (85 mg BID 7d-on/7d-off (N = 6)): 0 n (%)
TEAE: GGT increased, maximal CTCAE grade G2 (85 mg BID 7d-on/7d-off (N = 6)): 0 n (%)
TEAE: GGT increased, maximal CTCAE grade G3 (85 mg BID 7d-on/7d-off (N = 6)): 0 n (%)
TEAE: GGT increased, maximal CTCAE grade G4 (85 mg BID 7d-on/7d-off (N = 6)): 0 n (%)
TEAE: GGT increased, maximal CTCAE grade G5 (85 mg BID 7d-on/7d-off (N = 6)): 0 n (%)
TEAE: Hypoalbuminemia (85 mg BID 7d-on/7d-off (N = 6)): 1 (16.7%) n (%)
TEAE: LDH increased (85 mg BID 7d-on/7d-off (N = 6)): 0 n (%)
TEAE: LDH increased, any grade (Table S3) (85 mg BID 7d-on/7d-off (N = 6)): 0 n (%)
TEAE: LDH increased, maximal CTCAE grade G1 (85 mg BID 7d-on/7d-off (N = 6)): 0 n (%)
TEAE: LDH increased, maximal CTCAE grade G2 (85 mg BID 7d-on/7d-off (N = 6)): 0 n (%)
TEAE: LDH increased, maximal CTCAE grade G3 (85 mg BID 7d-on/7d-off (N = 6)): 0 n (%)
TEAE: LDH increased, maximal CTCAE grade G4 (85 mg BID 7d-on/7d-off (N = 6)): 0 n (%)
TEAE: LDH increased, maximal CTCAE grade G5 (85 mg BID 7d-on/7d-off (N = 6)): 0 n (%)
TEAE: Lymphocyte count decreased (85 mg BID 7d-on/7d-off (N = 6)): 3 (50.0%) n (%)
TEAE: Platelet count decreased (85 mg BID 7d-on/7d-off (N = 6)): 1 (16.7%) n (%)
TEAE: Proteinuria (85 mg BID 7d-on/7d-off (N = 6)): 1 (16.7%) n (%)
TEAE: Sinus tachycardia (85 mg BID 7d-on/7d-off (N = 6)): 2 (33.3%) n (%)
TEAE: Urine protein present (85 mg BID 7d-on/7d-off (N = 6)): 1 (16.7%) n (%)
TEAE: White blood cell count decreased (85 mg BID 7d-on/7d-off (N = 6)): 1 (16.7%) n (%)
TEAE: White blood cells urine positive (85 mg BID 7d-on/7d-off (N = 6)): 0 n (%)
TEAE: White blood cells urine positive, any grade (Table S3) (85 mg BID 7d-on/7d-off (N = 6)): 0 n (%)
TEAE: White blood cells urine positive, maximal CTCAE grade G1 (85 mg BID 7d-on/7d-off (N = 6)): 0 n (%)
TEAE: White blood cells urine positive, maximal CTCAE grade G2 (85 mg BID 7d-on/7d-off (N = 6)): 0 n (%)
TEAE: White blood cells urine positive, maximal CTCAE grade G3 (85 mg BID 7d-on/7d-off (N = 6)): 0 n (%)
TEAE: White blood cells urine positive, maximal CTCAE grade G4 (85 mg BID 7d-on/7d-off (N = 6)): 0 n (%)
TEAE: White blood cells urine positive, maximal CTCAE grade G5 (85 mg BID 7d-on/7d-off (N = 6)): 0 n (%)
TRAE: ALP increased (85 mg BID 7d-on/7d-off (N = 6)): 1 (16.7%) n (%)
TRAE: ALT increased (85 mg BID 7d-on/7d-off (N = 6)): 0 n (%)
TRAE: AST increased (85 mg BID 7d-on/7d-off (N = 6)): 0 n (%)
TRAE: Anemia (85 mg BID 7d-on/7d-off (N = 6)): 1 (16.7%) n (%)
TRAE: GGT increased (85 mg BID 7d-on/7d-off (N = 6)): 0 n (%)
TRAE: LDH increased (85 mg BID 7d-on/7d-off (N = 6)): 0 n (%)
TRAE: Lymphocyte count decreased (85 mg BID 7d-on/7d-off (N = 6)): 2 (33.3%) n (%)
TRAE: Protein urine present (85 mg BID 7d-on/7d-off (N = 6)): 1 (16.7%) n (%)
TRAE: Proteinuria (85 mg BID 7d-on/7d-off (N = 6)): 0 n (%)
Treatment-emergent Proteinuria (grouped PTs), G1 (85 mg BID 7d-on/7d-off (N = 6)): 2 (33.3) n (%)
Treatment-emergent Proteinuria (grouped PTs), G2 (85 mg BID 7d-on/7d-off (N = 6)): 0 n (%)
Treatment-emergent Proteinuria (grouped PTs), G3 (85 mg BID 7d-on/7d-off (N = 6)): 0 n (%)
Treatment-emergent Proteinuria (grouped PTs: proteinuria and urine protein present), any grade (85 mg BID 7d-on/7d-off (N = 6)): 2 (33.3) n (%)
At least one TEAE [1]: 12 (100%) n (%)
At least one TEAE (Table S3) [1]: 12 (100%) n (%)
At least one TRAE [1]: 11 (91.7%) n (%)
TEAE: ALP increased [1]: 2 (16.7%) n (%)
TEAE: ALT increased [1]: 3 (25.0%) n (%)
TEAE: ALT increased, any grade (Table S3) [1]: 3 (25.0%) n (%)
TEAE: ALT increased, maximal CTCAE grade G1 [1]: 3 (25.0%) n (%)
TEAE: ALT increased, maximal CTCAE grade G2 [1]: 0 n (%)
TEAE: ALT increased, maximal CTCAE grade G3 [1]: 0 n (%)
TEAE: ALT increased, maximal CTCAE grade G4 [1]: 0 n (%)
TEAE: ALT increased, maximal CTCAE grade G5 [1]: 0 n (%)
TEAE: AST increased [1]: 4 (33.3%) n (%)
TEAE: AST increased, any grade (Table S3) [1]: 4 (33.3%) n (%)
TEAE: AST increased, maximal CTCAE grade G1 [1]: 3 (25.0%) n (%)
TEAE: AST increased, maximal CTCAE grade G2 [1]: 1 (8.3%) n (%)
TEAE: AST increased, maximal CTCAE grade G3 [1]: 0 n (%)
TEAE: AST increased, maximal CTCAE grade G4 [1]: 0 n (%)
TEAE: AST increased, maximal CTCAE grade G5 [1]: 0 n (%)
TEAE: Abdominal distention [1]: 2 (16.7%) n (%)
TEAE: Abdominal pain [1]: 4 (33.3%) n (%)
TEAE: Anemia [1]: 3 (25.0%) n (%)
TEAE: Asthenia [1]: 2 (16.7%) n (%)
TEAE: Bilirubin conjugated increased [1]: 3 (25.0%) n (%)
TEAE: Blood albumin decreased [1]: 1 (8.3%) n (%)
TEAE: Blood bilirubin increased [1]: 0 n (%)
TEAE: C-reactive protein increased [1]: 3 (25.0%) n (%)
TEAE: C-reactive protein increased, any grade (Table S3) [1]: 3 (25.0%) n (%)
TEAE: C-reactive protein increased, maximal CTCAE grade G1 [1]: 3 (25.0%) n (%)
TEAE: C-reactive protein increased, maximal CTCAE grade G2 [1]: 0 n (%)
TEAE: C-reactive protein increased, maximal CTCAE grade G3 [1]: 0 n (%)
TEAE: C-reactive protein increased, maximal CTCAE grade G4 [1]: 0 n (%)
TEAE: C-reactive protein increased, maximal CTCAE grade G5 [1]: 0 n (%)
TEAE: Constipation [1]: 2 (16.7%) n (%)
TEAE: Decreased appetite [1]: 0 n (%)
TEAE: Decreased appetite, any grade (Table S3) [1]: 0 n (%)
TEAE: Decreased appetite, maximal CTCAE grade G1 [1]: 0 n (%)
TEAE: Decreased appetite, maximal CTCAE grade G2 [1]: 0 n (%)
TEAE: Decreased appetite, maximal CTCAE grade G3 [1]: 0 n (%)
TEAE: Decreased appetite, maximal CTCAE grade G4 [1]: 0 n (%)
TEAE: Decreased appetite, maximal CTCAE grade G5 [1]: 0 n (%)
TEAE: GGT increased [1]: 4 (33.3%) n (%)
TEAE: GGT increased, any grade (Table S3) [1]: 4 (33.3%) n (%)
TEAE: GGT increased, maximal CTCAE grade G1 [1]: 3 (25.0%) n (%)
TEAE: GGT increased, maximal CTCAE grade G2 [1]: 1 (8.3%) n (%)
TEAE: GGT increased, maximal CTCAE grade G3 [1]: 0 n (%)
TEAE: GGT increased, maximal CTCAE grade G4 [1]: 0 n (%)
TEAE: GGT increased, maximal CTCAE grade G5 [1]: 0 n (%)
TEAE: Hypoalbuminemia [1]: 3 (25.0%) n (%)
TEAE: LDH increased [1]: 2 (16.7%) n (%)
TEAE: LDH increased, any grade (Table S3) [1]: 2 (16.7%) n (%)
TEAE: LDH increased, maximal CTCAE grade G1 [1]: 2 (16.7%) n (%)
TEAE: LDH increased, maximal CTCAE grade G2 [1]: 0 n (%)
TEAE: LDH increased, maximal CTCAE grade G3 [1]: 0 n (%)
TEAE: LDH increased, maximal CTCAE grade G4 [1]: 0 n (%)
TEAE: LDH increased, maximal CTCAE grade G5 [1]: 0 n (%)
TEAE: Lymphocyte count decreased [1]: 4 (33.3%) n (%)
TEAE: Platelet count decreased [1]: 1 (8.3%) n (%)
TEAE: Proteinuria [1]: 2 (16.7%) n (%)
TEAE: Sinus tachycardia [1]: 1 (8.3%) n (%)
TEAE: Urine protein present [1]: 1 (8.3%) n (%)
